In US9061026B2, “Oligomer-diarylpiperazine conjugates” (priority 2008, dated 2015):
Where two headings read alike, the source gives them in different places.

What was measured:
[1] = target: Opiate Receptor, μ (OP3, MOP) (Homo sapiens, UniProt P35372); experiment: Radioligand competition binding, Opiate Receptor, μ (OP3, MOP), [3H]-diprenorphine, CHO-K1 cells
[2] = target: T1, Opiate Receptor, kappa (OP2, KOP) (Homo sapiens, UniProt P41145); experiment: biochemical; assay type: binding
T1 construct: expressed in transfected cells; host or cells: HEK-293 cells, membrane preparation

[3] = target: Opiate Receptor, delta (OP1, DOP) (Homo sapiens, UniProt P41143); experiment: Radioligand competition binding, Opiate Receptor, delta (OP1, DOP), [3H]-naltrindole, CHO cells
Opiate δ = Opiate δ (Homo sapiens, UniProt P41143); experiment: Opiate δ receptor binding (Table 1); details: for Ki: Table 1; for Fold change: Opiate δ Ki relative to ±BW373U86 (=1)
Delta Opioid Receptor = Delta Opioid Receptor Binding, forebrain, representative data set; details: radioligand [3H]Enkephalin, DPDPE, read-out: Kd (binding affinity)
Experimental: Binding characteristics for various receptors including, but not limited to, delta, kappa, and mu opioid receptors are determined.

Sequence of Opiate Receptor, μ (OP3, MOP) (P35372 whole entry): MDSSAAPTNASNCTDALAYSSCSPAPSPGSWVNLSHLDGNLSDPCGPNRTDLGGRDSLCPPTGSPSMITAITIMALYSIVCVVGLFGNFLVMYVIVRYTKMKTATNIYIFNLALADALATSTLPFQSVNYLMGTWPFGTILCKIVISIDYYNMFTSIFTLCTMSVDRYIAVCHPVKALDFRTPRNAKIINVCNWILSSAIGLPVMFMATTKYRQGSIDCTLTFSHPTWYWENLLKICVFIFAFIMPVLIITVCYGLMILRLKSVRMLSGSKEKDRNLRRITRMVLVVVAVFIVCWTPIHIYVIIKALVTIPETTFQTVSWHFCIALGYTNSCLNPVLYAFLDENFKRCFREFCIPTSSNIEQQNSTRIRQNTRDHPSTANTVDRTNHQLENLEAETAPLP
T1 sequence (P41145 whole entry): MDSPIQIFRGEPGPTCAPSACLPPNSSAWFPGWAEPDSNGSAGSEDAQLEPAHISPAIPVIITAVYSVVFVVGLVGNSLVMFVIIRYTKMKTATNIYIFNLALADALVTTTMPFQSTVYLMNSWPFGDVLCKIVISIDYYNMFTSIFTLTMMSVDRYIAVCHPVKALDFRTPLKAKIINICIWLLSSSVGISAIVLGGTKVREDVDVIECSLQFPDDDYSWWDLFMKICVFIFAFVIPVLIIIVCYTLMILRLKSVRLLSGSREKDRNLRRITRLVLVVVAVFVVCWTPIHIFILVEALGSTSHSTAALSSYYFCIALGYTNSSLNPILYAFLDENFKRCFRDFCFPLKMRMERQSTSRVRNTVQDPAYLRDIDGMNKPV
Sequence of Opiate δ (P41143 whole entry): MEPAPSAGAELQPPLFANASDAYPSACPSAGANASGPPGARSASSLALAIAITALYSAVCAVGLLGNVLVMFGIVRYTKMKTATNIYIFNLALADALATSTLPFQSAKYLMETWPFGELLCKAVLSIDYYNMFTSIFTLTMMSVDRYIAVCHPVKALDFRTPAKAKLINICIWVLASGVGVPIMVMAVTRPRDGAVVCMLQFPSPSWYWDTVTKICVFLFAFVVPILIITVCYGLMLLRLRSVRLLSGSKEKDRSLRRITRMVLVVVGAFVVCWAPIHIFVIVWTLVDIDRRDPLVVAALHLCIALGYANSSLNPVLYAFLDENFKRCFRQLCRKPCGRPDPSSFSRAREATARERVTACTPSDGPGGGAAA
Sequence of Opiate Receptor, delta (OP1, DOP) (P41143 whole entry): as above

Br.Br.C=CCN1CC(C)N(C(c2ccc(C(=O)N(CC)CC)cc2)c2cccc(O)c2)CC1C (racemic) [(+/−) BW373U86 dihydrobromide, reference compound]
nH [1]: 0.92
IC50 ([1]; read-out: IC50): 659 nM
Ki ([1]; read-out: Ki): 268 nM
nH [2]: 0.92
IC50 ([2]; read-out: IC50): 556 nM
Ki ([2]; read-out: Ki): 223 nM
IC50 ([3]; read-out: IC50): 3.26 nM
Ki ([3]; read-out: Ki): 1.15 nM

CCN(CC)C(=O)c1ccc([C@H](c2cccc(O)c2)N2C[C@@H](C)N(CCOCCOCCOC)C[C@@H]2C)cc1 (racemic) [mPEG3-N-(+/−)-BW373U86, (±)-4-[(αR)-α-((2S,5R)-4-methoxy(triethylene glycol)-2,5-dimethyl-1-piperazinyl)-3-hydroxybenzyl]-N,N-diethylbenzamide]
IC50 ([1]; read-out: IC50): 9370 nM
Ki ([1]; read-out: Ki): 3810 nM
IC50 ([3]; read-out: IC50): 764 nM
Ki ([3]; read-out: Ki): 269 nM

C=CCN1C[C@H](C)N([C@H](c2ccc(C(=O)N(CC)CC)cc2)c2cccc(OCCOCCOCCOC)c2)C[C@H]1C (racemic) [mPEG-3 ± BW373U86, (±)-4-[(αR)-α-((2S,5R)-4-Allyl-2,5-dimethyl-1-piperazinyl)-3-O-methoxy(triethylene glycol)benzyl]-N,N-diethylbenzamid]
Ki (Opiate δ; read-out: Opiate δ, Ki): ~415 nM

C=CCN1C[C@H](C)N([C@H](c2ccc(C(=O)N(CC)CC)cc2)c2cccc(OCCOCCOCCOCCOCCOCCOCCOC)c2)C[C@H]1C (racemic) [mPEG-7 ± BW373U86, (±)-4-[(αR)-α-((2S,5R)-4-Allyl-2,5-dimethyl-1-piperazinyl)-3-O-methoxy(heptaethylene glycol)benzyl]-N,N-diethylbenzamid]
Fold change (Opiate δ): ~298
Ki (Opiate δ; read-out: Opiate δ, Ki): ~1330 nM

C=CCN1C[C@H](C)N([C@H](c2ccc(C(=O)N(CC)CC)cc2)c2cccc(O)c2)C[C@H]1C (racemic) [±BW373U86, (±)-4-[(αR)-α-((2S,5R)-4-Allyl-2,5-dimethyl-1-piperazinyl)-3-hydroxbenzyl]-N,N-diethylbenzamide, reference compound]
Ki (Opiate δ; Opiate δ, Ki (nM)): 0.36 nM

C=CCN1C[C@H](C)N([C@H](c2ccc(C(=O)N(CC)CC)cc2)c2cccc(O)c2)C[C@H]1C [(+) BW373U86, (+)-4-[(αR)-α-((2S,5R)-4-Allyl-2,5-dimethyl-1-piperazinyl)-3-hydroxbenzyl]-N,N-diethylbenzamide, reference compound]
IC50 [1]: 309 nM
Ki [1]: 126 nM
nH [1]: 0.83
IC50 [2]: 223 nM
Ki [2]: 89.2 nM
nH [2]: 0.78
IC50 [3]: 1 nM
Ki [3]: 0.354 nM
nH [3]: 0.91

CCN(CC)C(=O)c1ccc(C(c2cccc(O)c2)N2CCN(Cc3ccccc3)CC2)cc1 (centres unmarked) [N-benzyl-deallyl-demethyl-BW373U86, 4-[(4-Benzyl-1-piperazinyl)-3-hydroxbenzyl]-N,N-diethylbenzamid]
IC50 [1]: 2750 nM
Ki [1]: 1110 nM
nH [1]: 0.90
IC50 [2]: 2370 nM
Ki [2]: 946 nM
nH [2]: 0.95
IC50 [3]: 1.33 nM
Ki [3]: 0.47 nM
nH [3]: 0.99

C=CCN1CCN(C(c2ccc(C(=O)N(CC)CC)cc2)c2cccc(O)c2)CC1 (centres unmarked) [demethyl-BW373U86, 4-[(4-Allyl-1-piperazinyl)-3-hydroxbenzyl]-N,N-diethylbenzamid]
nH [1]: 1.02
IC50 ([1]; read-out: IC50): 11000 nM
Ki ([1]; read-out: Ki): 4450 nM
nH [2]: 0.87
IC50 ([2]; read-out: IC50): 1000 nM
Ki ([2]; read-out: Ki): 401 nM
nH [3]: 1.10
IC50 ([3]; read-out: IC50): 7.09 nM
Ki ([3]; read-out: Ki): 2.5 nM

CCN(CC)C(=O)c1ccc(C(c2cccc(OCCOCCOCCOC)c2)N2CCN(Cc3ccccc3)CC2)cc1 (centres unmarked) [mPEG3-N-benzyl-deallyl-demethyl-BW373U86, 4-[(4-Benzyl-1-piperazinyl)-3-O-methoxy(triethyleneglycol)benzyl]-N,N-diethylbenzamide]
IC50 [3]: 212 nM
Ki [3]: 74.7 nM
nH [3]: 1.50

C=CCN1CCN(C(c2ccc(C(=O)N(CC)CC)cc2)c2cccc(OCCOCCOCCOC)c2)CC1 (centres unmarked) [mPEG3-demethyl-BW373U86, 4-[(4-Allyl-1-piperazinyl)-3-O-methoxy(triethyleneglycol)benzy]-N,N-diethylbenzamid]
IC50 ([3]; read-out: IC50): 6050 nM
Ki ([3]; read-out: Ki): 2130 nM

CCN(CC)C(=O)c1ccc(C(c2cccc(OCCOCCOCCOCCOCCOCCOCCOC)c2)N2CCN(Cc3ccccc3)CC2)cc1 (centres unmarked) [mPEG7-N-benzyl-deallyl-demethyl-BW373U86, 4-[(4-Benzyl-1-piperazinyl)-3-O-methoxy(heptaethyleneglycol)benzyl]-N,N-diethylbenzamid]
IC50 [3]: 106 nM
Ki [3]: 37.4 nM
nH [3]: 1.08

C=CCN1CCN(C(c2ccc(C(=O)N(CC)CC)cc2)c2cccc(OCCOCCOCCOCCOCCOCCOCCOC)c2)CC1 (centres unmarked) [mPEG7-demethyl-BW373U86, 4-[(4-Allyl-1-piperazinyl)-3-O-methoxy(heptaethylene glycol)benzyl]-N,N-diethylbenzamide]
IC50 ([3]; read-out: IC50): 3470 nM
Ki ([3]; read-out: Ki): 1220 nM

C=CCN1C[C@H](C)N([C@H](c2ccc(C(=O)N(CC)CC)cc2)c2cccc(OCCOCCOCCOC)c2)C[C@H]1C [mPEG-3 + BW373U86, (+)-4-[(αR)-α-((2S,5R)-4-Allyl-2,5-dimethyl-1-piperazinyl)-3-O-methoxy(triethylene glycol)benzyl]-N,N-diethylbenzamid]
Ki (Opiate δ; read-out: Opiate δ, Ki): 491 nM
IC50 ([3]; read-out: IC50): 723 nM
Ki ([3]; read-out: Ki): 255 nM

C=CCN1C[C@H](C)N([C@H](c2ccc(C(=O)N(CC)CC)cc2)c2cccc(OCCOCCOCCOCCOCCOCCOCCOC)c2)C[C@H]1C [mPEG-7 + BW373U86, (+)-4-[(αR)-α-((2S,5R)-4-Allyl-2,5-dimethyl-1-piperazinyl)-3-O-methoxy(heptaethylene glycol)benzyl]-N,N-diethylbenzamid]
Fold change (Opiate δ): 242.7
Ki (Opiate δ; read-out: Opiate δ, Ki): 864 nM

DPDPE [[3H]Enkephalin, DPDPE]
Kd (Delta Opioid Receptor): 2.1 nM
